Earlier results in patent US20160304829A1, “Automated Superparamagnetic Particle Handling System” (LIFE TECHNOLOGIES AS, priority 2006, published 2016).

Target: streptavidin (Streptomyces avidinii, UniProt P22629)
Settings: Piran & Riordan 1990

streptavidin, sequence (P22629 25-183): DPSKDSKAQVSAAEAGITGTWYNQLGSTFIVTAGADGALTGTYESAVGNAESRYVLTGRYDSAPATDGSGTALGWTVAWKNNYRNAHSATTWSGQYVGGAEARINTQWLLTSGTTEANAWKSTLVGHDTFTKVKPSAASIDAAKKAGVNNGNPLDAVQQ

SMILES: O=C(O)CCCC[C@@H]1SC[C@@H]2NC(=O)N[C@@H]21 [biotin, cis-hexahydro-2oxo-1H-thieno [3,4]imidazole-4-pentanoic acid]
- dissociation from streptavidin, times faster than dissociation from avidin: about 30 times
